Source: US11339171B2, “MDM2 inhibitors” (Gan & Lee Pharmaceuticals, priority 2017, dated 2022)
pIC50: −log10 of the molar value. Several values for one entry are separate records, joined by “and”; a condition that tells them apart may be missing. Equal entries are not always repeated. Where two headings read alike, the source gives them in different places.

Legend:
[1] = Pharmacokinetics in ICR mice after intravenous and intragastric administration; type: in vivo; conditions: for MRT last: read-out: MRT(0-t); for MRT inf: read-out: MRT(0-∞); for Vd: read-out: Vz
Procedure, shortened: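 Plasma concentrations by LC-MS/MS (range 1 to 2000 ng/ml) following single intravenous (2 mg/kg) or oral gavage (5 mg/kg) dosing of fasted male ICR mice, three per group. Vehicle 5% DMSO + 40% PEG400 + 55% (10% HP-β-CD in saline); standard PK parameters including bioavailability calculated.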

[2] = tested on: human osteosarcoma cell line SJSA-1; assay: Inhibition of proliferation of human osteosarcoma cell line SJSA-1 (DAPI staining, In Cell Analyzer); conditions: Homo sapiens, SJSA-1, 72 h, read-out: IC50 (nM), inhibitory activity on proliferation of human osteosarcoma cell line SJSA-1, SJSA-1, incubated 72 h
MDM2 = target: T1, MDM2 (Homo sapiens, UniProt Q00987); assay: Inhibition test of MDM2-P53 (GST-MDM2, Biotin-P53, Anti-GST-Tb, SA-XL665); type: binding
T1 construct: made in house
T1 sequence (Q00987 whole entry): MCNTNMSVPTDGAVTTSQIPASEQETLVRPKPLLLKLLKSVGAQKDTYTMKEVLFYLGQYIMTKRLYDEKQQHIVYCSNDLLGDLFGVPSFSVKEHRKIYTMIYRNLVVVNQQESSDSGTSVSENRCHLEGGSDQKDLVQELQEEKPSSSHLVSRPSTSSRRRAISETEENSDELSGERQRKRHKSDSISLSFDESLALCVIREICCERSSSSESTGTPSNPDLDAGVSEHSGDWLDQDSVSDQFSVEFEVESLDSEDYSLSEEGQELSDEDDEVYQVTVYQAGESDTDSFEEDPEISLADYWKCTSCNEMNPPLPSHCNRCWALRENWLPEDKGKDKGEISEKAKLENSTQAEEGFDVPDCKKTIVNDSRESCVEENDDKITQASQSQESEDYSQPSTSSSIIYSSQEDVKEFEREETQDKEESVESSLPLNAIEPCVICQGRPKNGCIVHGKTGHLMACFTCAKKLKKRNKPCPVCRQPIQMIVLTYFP
Procedure, shortened: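 Compounds, serially diluted 5-fold (twelve concentrations), were shaken for 90 min at 25° C with a mix of GST-MDM2 (4 nM final), Biotin-P53, anti-GST-Tb and SA-XL665. Buffer: 1×PBS, 0.1% BSA, 5 mM DTT, 1 mM AEBSF; signal read on a microplate reader.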

[3] = ICR mice, IV 2 mg/kg, individual animal, 2 mg/kg
[4] = ICR mice, PO 5 mg/kg, individual animal, 5 mg/kg
[5] = male, ICR, mouse, plasma, iv, 2 mg/kg, ICR mice, IV 2 mg/kg, individual animal
[6] = male, ICR, mouse, plasma, iv, 2 mg/kg, ICR mice, IV 2 mg/kg, individual animal, read-out: AUC(0-t)
[7] = male, ICR, mouse, plasma, iv, 2 mg/kg, ICR mice, IV 2 mg/kg, individual animal, read-out: Cmax
[8] = male, ICR, mouse, plasma, iv, 2 mg/kg, ICR mice, IV 2 mg/kg, individual animal, read-out: t1/2 (converted)
[9] = male, ICR, mouse, plasma, iv, 2 mg/kg, ICR mice, IV 2 mg/kg, mean of 3 animals
[10] = male, ICR, mouse, plasma, iv, 2 mg/kg, ICR mice, IV 2 mg/kg, mean of 3 animals, read-out: AUC(0-t)
[11] = male, ICR, mouse, plasma, iv, 2 mg/kg, ICR mice, IV 2 mg/kg, mean of 3 animals, read-out: Cmax
[12] = male, ICR, mouse, plasma, iv, 2 mg/kg, ICR mice, IV 2 mg/kg, mean of 3 animals, read-out: Tmax
[13] = male, ICR, mouse, plasma, iv, 2 mg/kg, ICR mice, IV 2 mg/kg, mean of 3 animals, read-out: t1/2 (converted)
[14] = male, ICR, mouse, plasma, po, 5 mg/kg, ICR mice, PO 5 mg/kg, individual animal
[15] = male, ICR, mouse, plasma, po, 5 mg/kg, ICR mice, PO 5 mg/kg, individual animal, read-out: Cmax
[16] = male, ICR, mouse, plasma, po, 5 mg/kg, ICR mice, PO 5 mg/kg, individual animal, read-out: Tmax
[17] = male, ICR, mouse, plasma, po, 5 mg/kg, ICR mice, PO 5 mg/kg, mean of 3 animals
[18] = male, ICR, mouse, plasma, po, 5 mg/kg, ICR mice, PO 5 mg/kg, mean of 3 animals, read-out: AUC(0-t)
[19] = male, ICR, mouse, plasma, po, 5 mg/kg, ICR mice, PO 5 mg/kg, mean of 3 animals, read-out: Cmax
[20] = male, ICR, mouse, plasma, po, 5 mg/kg, ICR mice, PO 5 mg/kg, mean of 3 animals, read-out: Tmax
[21] = male, ICR, mouse, plasma, po, 5 mg/kg, ICR mice, PO 5 mg/kg, mean of 3 animals, read-out: t1/2 (converted)
[22] = male, ICR, mouse, plasma, po, 5 mg/kg, oral intragastric administration 5 mg/kg, read-out: AUC0-t
[23] = male, ICR, mouse, plasma, po, 5 mg/kg, oral intragastric administration 5 mg/kg, read-out: half-life (converted)
[24] = male, mouse, plasma, ICR mice, PO 5 mg/kg vs IV 2 mg/kg, from mean values, read-out: F* (bioavailability)

COc1ccc(-c2nc3c(n2C(C)C)[C@@]2(C(=O)Nc4cc(Cl)ccc42)N(c2cc(Cl)cnc2C)C3=O)c(OC)c1 [Example S-61, (S)-6-chloro-5′-(5-chloro-2-methylpyridin-3-yl)-2′-(2,4-dimethoxyphenyl)-3′-isopropyl-3′H-spiro[dihydroindole-3,4′-pyrrolo[3,4-d]imidazole]-2,6′(5′H)-dione]
AUC(0-t) [1, 3]: 5346.76 ng·h/mL and 4640.74 ng·h/mL | AUC(0-∞) [1, 3]: 5483.62 ng·h/mL and 4724.28 ng·h/mL | CL [1, 3]: 6.08 mL/min/kg and 7.06 mL/min/kg | Cmax [1, 3]: 3244.96 ng/mL and 2994.43 ng/mL | MRT(0-t) [1, 3]: 1.26 h and 1.21 h | MRT(0-∞) [1, 3]: 1.42 h and 1.32 h | Vz [1, 3]: 0.60 L/kg and 0.67 L/kg | t1/2 [1, 3]: 1.15 h and 1.09 h | AUC(0-t) [1, 4]: 2462.65 ng·h/mL and 4960.30 ng·h/mL and 3162.34 ng·h/mL | AUC(0-∞) [1, 4]: 5500.70 ng·h/mL and 3530.81 ng·h/mL | Cmax [1, 4]: 2489.40 ng/mL and 1772.67 ng/mL | MRT(0-t) [1, 4]: 2.03 h and 1.91 h | MRT(0-∞) [1, 4]: 3.00 h | Tmax [1, 4]: 0.50 h | t1/2 [1, 4]: 2.71 h and 2.98 h | AUC(0-inf) [1, 5]: 3630 ng·h/mL | clearance [1, 5]: 9.19 mL/min/kg | AUC(0-t) [1, 6]: 3580 ng·h/mL | Cmax [1, 7]: 3250 ng/mL | MRT last [1, 5]: 0.99 h | MRT inf [1, 5]: 1.07 h | Tmax ([1]; male, ICR, mouse, plasma, iv, 2 mg/kg, ICR mice, IV 2 mg/kg, individual animal, read-out: Tmax): 0.08 h | Vd [1, 5]: 0.8 L/kg | half-life [1, 8]: 1 h | AUC(0-inf) [1, 9]: 4610 ng·h/mL | clearance [1, 9]: 7.44 mL/min/kg | AUC(0-t) [1, 10]: 4520 ng·h/mL | Cmax [1, 11]: 3160 ng/mL | MRT last [1, 9]: 1.15 h | MRT inf [1, 9]: 1.27 h | Tmax [1, 12]: 0.083 h | Vd [1, 9]: 0.69 L/kg | half-life [1, 13]: 1.08 h | AUC(0-inf) [1, 14]: 2770 ng·h/mL | Cmax [1, 15]: 2430 ng/mL | MRT last [1, 14]: 1.57 h | MRT inf [1, 14]: 2.85 h | Tmax [1, 16]: 0.25 h | half-life ([1]; male, ICR, mouse, plasma, po, 5 mg/kg, ICR mice, PO 5 mg/kg, individual animal, read-out: t1/2 (converted)): 3.58 h | AUC(0-inf) [1, 17]: 3930 ng·h/mL | AUC(0-t) [1, 18]: 3530 ng·h/mL | Cmax [1, 19]: 2230 ng/mL | MRT last [1, 17]: 1.84 h | MRT inf [1, 17]: 2.95 h | Tmax [1, 20]: 0.33 h | half-life [1, 21]: 3.09 h | AUC(0-t) [1, 22]: 3530 ng·h/mL | half-life [1, 23]: 3.09 h | bioavailability [1, 24]: 31.2% | IC50 [2]: 5.5 nM | pIC50 (MDM2): 8.88

CCOc1cc(OC)c(-c2nc3c(n2C(C)C)[C@@]2(C(=O)Nc4cc(Cl)ccc42)N(c2cc(Cl)ccc2C)C3=O)cn1 [Example S-72, (S)-6-chloro-5′-(5-chloro-2-methylphenyl)-2′-(6-ethoxy-4-methoxypyridin-3-yl)-3′-isopropyl-3′H-spiro[dihydroindole-3,4′-pyrrolo[3,4-d]imidazole]-2,6′(5′H)-dione]
AUC(0-t) [1, 3]: 11802.83 ng·h/mL and 14847.37 ng·h/mL | AUC(0-∞) [1, 3]: 12174.58 ng·h/mL and 17305.95 ng·h/mL | CL [1, 3]: 2.74 mL/min/kg and 1.93 mL/min/kg | Cmax [1, 3]: 4839.23 ng/mL and 3686.88 ng/mL | MRT(0-t) [1, 3]: 1.52 h and 1.96 h | MRT(0-∞) [1, 3]: 1.71 h and 2.98 h | Tmax [1, 3]: 0.08 h and 1.00 h | Vz [1, 3]: 0.29 L/kg and 0.36 L/kg | t1/2 [1, 3]: 1.23 h and 2.16 h | AUC(0-t) [1, 4]: 51286.19 ng·h/mL and 23996.12 ng·h/mL and 26941.23 ng·h/mL | AUC(0-∞) [1, 4]: 51351.03 ng·h/mL and 24161.28 ng·h/mL and 27586.31 ng·h/mL | Cmax [1, 4]: 7160.86 ng/mL and 6289.71 ng/mL | MRT(0-t) [1, 4]: 2.18 h and 2.66 h | MRT(0-∞) [1, 4]: 2.23 h and 2.84 h | Tmax [1, 4]: 1.00 h | t1/2 [1, 4]: 2.54 h and 1.13 h and 1.47 h | AUC(0-inf) [1, 5]: 11900 ng·h/mL | clearance [1, 5]: 2.8 mL/min/kg | AUC(0-t) [1, 6]: 11500 ng·h/mL | Cmax [1, 7]: 4630 ng/mL | MRT last [1, 5]: 1.53 h | MRT inf [1, 5]: 1.78 h | Vd [1, 5]: 0.34 L/kg | half-life [1, 8]: 1.39 h | AUC(0-inf) [1, 9]: 13800 ng·h/mL | clearance [1, 9]: 2.49 mL/min/kg | AUC(0-t) [1, 10]: 12700 ng·h/mL | Cmax [1, 11]: 4390 ng/mL | MRT last [1, 9]: 1.67 h | MRT inf [1, 9]: 2.16 h | Tmax [1, 12]: 0.389 h | Vd [1, 9]: 0.33 L/kg | half-life [1, 13]: 1.59 h | Cmax [1, 15]: 7870 ng/mL | MRT last [1, 14]: 3.95 h | MRT inf [1, 14]: 3.98 h | Tmax [1, 16]: 0.5 h | AUC(0-inf) [1, 17]: 34400 ng·h/mL | AUC(0-t) [1, 18]: 34100 ng·h/mL | Cmax [1, 19]: 7110 ng/mL | MRT last [1, 17]: 2.93 h | MRT inf [1, 17]: 3.01 h | Tmax [1, 20]: 0.67 h | half-life [1, 21]: 1.72 h | AUC(0-t) [1, 22]: 34100 ng·h/mL | half-life [1, 23]: 1.72 h | bioavailability ([1]; male, ICR, mouse, plasma, oral intragastric administration 5 mg/kg, read-out: bioavailability): 107% | bioavailability [1, 24]: 107% | IC50 [2]: 5.9 nM | pIC50 (MDM2): 9.05
